Source: patent US20250073255A1, “USE OF FA-TYPE LIPID COMPOUNDS IN PREPARATION OF NUCLEIC ACID DELIVERY REAGENT AND RELATED PRODUCT” (BEIJING BAISHIKANG PHARMACEUTICAL TECHNOLOGY (BSJPHARMA) …, priority 2021, published 2025)

Tested on: C57BL/6 male mice
Assay: In vivo delivery study of lipid nucleic acid mixture (oral gavage, RT-qPCR of PGY-sRNA-26 in tissues)
Design: species or system mouse
Settings: for oral delivery of single-stranded sRNA nucleic acids into mouse blood / oral delivery of single-stranded sRNA nucleic acids into mouse brain tissue / oral delivery of single-stranded sRNA nucleic acids into mouse femur / oral delivery of single-stranded sRNA nucleic acids into mouse heart tissue / oral delivery of single-stranded sRNA nucleic acids into mouse intestinal tissue / oral delivery of single-stranded sRNA nucleic acids into mouse kidney tissue / oral delivery of single-stranded sRNA nucleic acids into mouse liver tissue / oral delivery of single-stranded sRNA nucleic acids into mouse lung tissue / oral delivery of single-stranded sRNA nucleic acids into mouse pancreatic tissue / oral delivery of single-stranded sRNA nucleic acids into mouse spleen tissue / oral delivery of single-stranded sRNA nucleic acids into mouse stomach tissue: 100 μg lipid:10 nmol PGY-sRNA-26, sampled after 12 hours; for oral delivery of single-stranded sRNA nucleic acids into mouse heart tissue: vs free uptake group; for oral delivery of single-stranded sRNA nucleic acids into mouse intestinal tissue: intestine; for oral delivery of single-stranded sRNA nucleic acids into mouse pancreatic tissue: pancreas; for overall delivery efficacy: delivering nucleic acids into each tissue and blood tested: 100 μg lipid:10 nmol PGY-sRNA-26, all tissues and blood tested
How it was run: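 Stem-loop RT and SYBR qPCR, normalized to U6, measured PGY-sRNA-26 in blood and organs 12 h after gavage. Dosing was 10 nmol sRNA with 100 μg lipid, pre-mixed and heated 15 min at 90 °C, in 12-h-fasted mice, against saline and free-sRNA groups.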

Row | Compound | oral delivery of single-stranded sRNA nucleic acids into mouse blood | oral delivery of single-stranded sRNA nucleic acids into mouse brain tissue | oral delivery of single-stranded sRNA nucleic acids into mouse femur | oral delivery of single-stranded sRNA nucleic acids into mouse heart tissue | oral delivery of single-stranded sRNA nucleic acids into mouse intestinal tissue | oral delivery of single-stranded sRNA nucleic acids into mouse kidney tissue | oral delivery of single-stranded sRNA nucleic acids into mouse liver tissue | oral delivery of single-stranded sRNA nucleic acids into mouse lung tissue | oral delivery of single-stranded sRNA nucleic acids into mouse pancreatic tissue | oral delivery of single-stranded sRNA nucleic acids into mouse spleen tissue | oral delivery of single-stranded sRNA nucleic acids into mouse stomach tissue | overall delivery efficacy: delivering nucleic acids into each tissue and blood tested
1 | CCCCCC/C=C\CCCCCCCC(=O)OCCCCCCCCCCCCCCCCCCCCC [Lipid 820, henicosyl (Z)-hexadec-9-enoate] | can effectively orally deliver | can effectively orally deliver | can effectively orally deliver | can effectively orally deliver | can effectively orally deliver | can effectively orally deliver | can effectively orally deliver | can effectively orally deliver | can effectively orally deliver | can effectively orally deliver | can effectively orally deliver | –
2 | CCCCCC/C=C\CCCCCCCC(=O)OCCCCCCCCCCCCCCCCCCCCCCC [Lipid 825, tricosyl (Z)-hexadec-9-enoate] | can effectively orally deliver | can effectively orally deliver | can effectively orally deliver | can effectively orally deliver | can effectively orally deliver | can effectively orally deliver | can effectively orally deliver | can effectively orally deliver | can effectively orally deliver | can effectively orally deliver | can effectively orally deliver | –
3 | CC(CC(=O)O)C(=O)O (centres unmarked) [Lipid 608, 2-methylbutanedioic acid] | – | – | can effectively orally deliver | can effectively orally deliver | – | – | – | can effectively orally deliver | – | can effectively orally deliver | can effectively orally deliver | –
4 | N[C@@H](CCCC(=O)O)C(=O)O [Lipid 595, (2S)-2-aminohexanedioic acid] | can effectively orally deliver | can effectively orally deliver | can effectively orally deliver | can effectively orally deliver | can effectively orally deliver | can effectively orally deliver | can effectively orally deliver | can effectively orally deliver | – | can effectively orally deliver | can effectively orally deliver | best delivery efficacy
5 | O=C(O)CC(=O)C(=O)O [Lipid 623, 2-oxobutanedioic acid] | can effectively orally deliver | can effectively orally deliver | can effectively orally deliver | can effectively orally deliver | can effectively orally deliver | can effectively orally deliver | can effectively orally deliver | – | – | can effectively orally deliver | can effectively orally deliver | –
6 | CCCCCCC(=O)OC/C=C(\C)CC/C=C(\C)CCC=C(C)C [Lipid 809, [(2E,6E)-3,7,11-trimethyldodeca-2,6,10-trienyl]heptanoate] | can effectively orally deliver | can effectively orally deliver | can effectively orally deliver | can effectively orally deliver | can effectively orally deliver | can effectively orally deliver | can effectively orally deliver | can effectively orally deliver | can effectively orally deliver | can effectively orally deliver | can effectively orally deliver | –
7 | CCCCCCCCCCCCCCCCCCCC(=O)O [Lipid 624, icosanoic acid] | – | can effectively orally deliver | can effectively orally deliver | can effectively orally deliver | can effectively orally deliver | – | can effectively orally deliver | can effectively orally deliver | – | – | can effectively orally deliver | –
8 | CCCCCCCCCCCCCCCC(=O)NCCO [Lipid 578, N-(2-hydroxyethyl)hexadecanamide] | can effectively orally deliver | can effectively orally deliver | can effectively orally deliver | can effectively orally deliver | – | can effectively orally deliver | can effectively orally deliver | can effectively orally deliver | – | can effectively orally deliver | can effectively orally deliver | –
9 | CCCCCCOC(=O)CCC [Lipid 614, hexyl butanoate] | can effectively orally deliver | can effectively orally deliver | can effectively orally deliver | can effectively orally deliver | can effectively orally deliver | – | can effectively orally deliver | can effectively orally deliver | – | can effectively orally deliver | – | –
10 | CC(C)(CC(=O)O)CC(=O)O [Lipid 598, 3,3-dimethylpentanedioic acid] | can effectively orally deliver | can effectively orally deliver | can effectively orally deliver | can effectively orally deliver | can effectively orally deliver | can effectively orally deliver | can effectively orally deliver | can effectively orally deliver | – | can effectively orally deliver | can effectively orally deliver | best delivery efficacy
11 | CCCCCCCCC(C)=O [Lipid 604, decan-2-one] | can effectively orally deliver | can effectively orally deliver | can effectively orally deliver | can effectively orally deliver | can effectively orally deliver | can effectively orally deliver | can effectively orally deliver | can effectively orally deliver | – | can effectively orally deliver | can effectively orally deliver | best delivery efficacy
